# Earlier results as cited in US9215889B2, “Steviol glycoside” (MORITA KAGAKU KOGYO CO., LTD., priority 2008, dated 2015).
# Details: for taste quality (in words): background comparison of ST and RA
SMILES,taste quality (in words),degree of sweetness (relative to sucrose)
"C=C1C[C@@]23CC[C@H]4[C@@](C)(CCC[C@@]4(C)C(=O)O[C@@H]4O[C@H](CO)[C@@H](O)[C@H](O)[C@H]4O)[C@@H]2CC[C@]1(O[C@@H]1O[C@H](CO)[C@@H](O)[C@H](O[C@@H]2O[C@H](CO)[C@@H](O)[C@H](O)[C@H]2O)[C@H]1O[C@@H]1O[C@H](CO)[C@@H](O)[C@H](O)[C@H]1O)C3 [RA, Rebaudioside A]",good quality of sweetness,–
"C=C1C[C@@]23CC[C@H]4[C@@](C)(CCC[C@@]4(C)C(=O)O[C@@H]4O[C@H](CO)[C@@H](O)[C@H](O)[C@H]4O)[C@@H]2CC[C@]1(O[C@@H]1O[C@H](CO)[C@@H](O)[C@H](O)[C@H]1O[C@@H]1O[C@H](CO)[C@@H](O)[C@H](O)[C@H]1O)C3 [ST, Stevioside]",an unpleasant taste of bitterness remains in the mouth,300 times that of sucrose
